From US5276034A, “Substituted imidazolyl-alkyl-piperazine and -diazepine derivatives” (Syntex Pharmaceutical Ltd., priority 1991, dated 1994)

Key:
[1] = test system: abnormal neurones in brain after bilateral common carotid artery occlusion; experiment: Five minute model of bilateral common carotid artery occlusion in the gerbil with 72 hour survival; format: in vivo; conditions: then b.i.d. for 72 h
Protocol: In vivo protective effects of the compounds of this invention against the deleterious effects of cerebral ischemia are determined by use of the standard gerbil brain ischemia model.
A. Five minute model of bilateral common carotid artery occlusion in the gerbil with 72 hour survival
2) Sham-operated animals--The animals were anesthetized with a halothane-nitrous oxide-oxygen mixture. […] The microscopic sections were prepared and counted as in 1) above. In this case 7 animals were used and 100 microscopic fields were counted.
3) Untreated ischemic controls--In this case animals were subjected to 5 minute bilateral carotid artery occlusion with 72 hour survival. The microscopic sections were prepared and counted as in 1) above. In this case 12 animals were used and 120 microscopic fields were counted.
(§1) 4) Parenteral, 15 minute pre-ischemia treated--The animals were given 500 mg/kg i.p. of 1-diphenylmethyl-4-[(2-(4-methylphenyl)-5-methylimidazol-4-yl)methyl]piperazine trihydrochloride 15 minutes prior to ischaemic insult. The treatment was repeated b.i.d. for 72 hours. The microscopic sections were prepared and counted as in 1) above. In this case 10 animals were used and 100 microscopic fields were counted.
as §1, with “5) Parenteral” for “4) Parenteral,”, “pre-ischemic” for “pre-ischemia”, “250” for “500”, “Treatment” for “The treatment”, “6” for “10”, “60” for “100”
as §1, with “6) Parenteral” for “4) Parenteral,”, “post-ischemia” for “pre-ischemia”, “after” for “prior to”, “9” for “10”, “90” for “100”
7) Oral, pre-ischemia treated--The animals were given 5 mg/kg p.o. b.i.d. of 1-diphenyl-methyl-4-[(2-(4-methylphenyl)-5-methylimidazol-4-yl)-methyl]piperazine trihydrochloride for 3 days and on the 4th day at 1 hour pre-ischaemic. Treatment was repeated b.i.d. for 72 hours. The microscopic sections were prepared and counted as in 1) above. In this case 11 animals were used and 110 microscopic fields were counted.
8) Oral, pre-ischemia treated--The animals were given 10 mg/kg p.o. of 1-diphenyl-methyl-4-[(2-(4-methylphenyl)-5-methylimidazol-4-yl)-methyl]piperazine trihydrochloride for 3 days and on 4th day at 1 hour pre-ischaemia.Treatment was repeated b.i.d. for 72 hours. The microscopic sections were prepared and counted as in 1) above. In this case 9 animals were used and 90 microscopic fields were counted.

[2] = test system: abnormal neurones in brain areas after four vessel occlusion; experiment: Ten minute model of four vessel occlusion with 72 hour survival; format: in vivo; conditions: 100 mg/kg i.a. 5 min plus 500 mg/kg i.p. 15 min post-ischaemia
Protocol: B. Ten minute Model of four vessel occlusion with 72 hour survival.
The procedure used was that of Alps, et al., Neurology, 37, 809 (1987). The object of this assay was to count abnormally appearing cells in 7 different areas and exymers as a percentage of the total area counted. The number of counts per structure depended upon size, e.g., cortical areas had double the number of other areas. Mean whole brain scores were also determined for percent abnormalities. Normal brains were also used to account for incidence of artifact changes attributed to the fixation process.
. In this case 6 animals were used with the results shown in the below table.
2) Untreated (saline) ischemic controls--The animals were subjected to 10 minutes of bilateral common cartoid artery occlusion (with previously surgically sealed vertebral arteries) with 72 hours survival. The microscopic sections were prepared as in 1) above. In this case 11 animals were used with the results shown in the below table.
Parenteral, post-ischaemia treated--The animals were given 100 mg/kg i.a. of 1-diphenyl-methyl-4-[(2-(4-methylphenyl)-5-methylimidazol-4-yl)-methyl]piperazine trihydrochloride 5 minutes post-ischaemia plus 500 mg/kg i.p. of 1-diphenyl-methyl-4-[(2-(4-methylphenyl)-5-methylimidazol-4-yl)-methyl]piperazine trihydrochloride 15 minutes post-ischaemia. The microscopic sections were prepared according to 1) above. In this case 5 animals were used with the results shown in the below table.

[3] = test system: pentylenetetrazole-induced seizures and mortality; experiment: Effect on pentylenetetrazole-induced seizures and mortality in the mouse; format: in vivo, mouse (male CDI); conditions: 500 mg/kg i.p., pentylenetetrazole 100 mg/kg s.c.
Protocol: C. The effect of 1-diphenyl-methyl-4-[(2-(4-methylphenyl)-5-methylimidazol-4-yl)-methyl]piperazine trihydrochloride on pentylenetetrazole-induced seizures and mortality in the mouse.
The procedure used was that described in Allely, and Alps, Br. J. Phramacol. Proc. Suppl., 92, 605P (1987). Groups of 20 or more (see n in table) male CDI mice were predosed with 500 mg/kg i.p. of 1-diphenyl-methyl-4-[(2-(4-methylphenyl)-5-methylimidazol-4-yl)methyl]piperazine trihydrochloride at one of three dosing schedules--A (15minutes), B (60 minutes), or C (3 days b.i.d. plus 15 minutes on 4th day)--before challenging with 100 mg/kg of pentylenetetrazole s.c. The animals were then observed for a 30 minute period and the occurrence of clonic or tonic seizures or death noted. Statistical analysis was by a Chi squared test of association. Results compared against saline treated animals are shown in the below table.

[4] = test system: barium-stimulated intestinal transit of the charcoal meal; experiment: Irritable bowel syndrome: intestinal transit of a charcoal meal in conscious mice, barium chloride stimulated; format: in vivo, mouse
Protocol: (§2) The test used is a modification of the method of Macht and Barba-Gose, J. Amer. Pharm. […] In the present model, intestinal transit in conscious mice (15-20 g) was accelerated with an oral dose of barium chloride (300 mg/kg) administered at the same time as the charcoal meal. The animals were sacrificed 10 minutes later and the distance travelled by the charcoal measured. 1-diphenyl-methyl-4-[(2-(4-methylphenyl)-5-methylimidazol-4-yl)methyl]-piperazine trihydrochloride was given as a 15 minute oral pre-treatment and its effect on non-stimulated or barium-stimulated intestinal transit of the charcoal meal was calculated.

[5] = test system: male normotensive rats (urine volume, sodium and potassium excretion); experiment: Diuresis in male normotensive rats; format: in vivo, rat
Protocol: Male normotensive rats weighing 290-380 g were divided into four groups of seven animals. All animals were fasted and deprived of water overnight. The following morning, each group of rats was hydrated with deionized water ([…]. p.o.) 45 minutes prior to the administration of vehicle (1% polysorbate 80 in deionized water) or 1-diphenyl-methyl-4-[(2-(4-methylphenyl)-5-methylimidazol-4-yl)methyl]-piperazine trihydrochloride at doses of 5, 15, or 30 mg/kg p.o. Fifteen minutes post-drug, the animals were saline loaded (30 ml/kg, p.o. 0.9% sodium chloride) and placed individually in metabolism cages. Urine was collected at 1, 3, and 6 hour intervals post-dose. Urine volumes were measured and sodium and potassium levels were determined by flame photometry. Differences between control and treated values were evaluated by one way analysis of variance.

[6] = test system: non-stimulated intestinal transit of the charcoal meal; experiment: Intestinal transit of a charcoal meal in conscious mice, non-stimulated; format: in vivo; conditions: Mus musculus, po, 15 min pre-treatment, read-out: % Inhibition Normal Transition
Protocol: as §2

[7] = in vivo; cited from earlier work
[8] = schedule C (3 days b.i.d. plus 15 minutes on 4th day), n=24

Structure (SMILES): Cc1ccc(-c2nc(CN3CCN(C(c4ccccc4)c4ccccc4)CC3)c(C)[nH]2)cc1.Cl.Cl.Cl [1-diphenylmethyl-4-[(2-(4-methylphenyl)-5-methylimidazol-4-yl)methyl]piperazine trihydrochloride]
- mean % abnormal neurones ([1]; 5 mg/kg p.o. b.i.d. 3 days and 1 h pre-ischemia): 3.00±1.00%
- mean % abnormal neurones ([1]; 10 mg/kg p.o. 3 days and 1 h pre-ischemia): 22.00±3.10%
- mean % abnormal neurones ([1]; 250 mg/kg i.p. 15 min pre-ischemia): 27.20±4.30%
- mean % abnormal neurones ([1]; 500 mg/kg i.p. 15 min post-ischemia): 41.70±4.60%
- mean % abnormal neurones ([1]; 500 mg/kg i.p. 15 min pre-ischemia): 26.90±3.30%
- Mean % Abnormal Neurones, Hip C2-5 ([2]; Hip C2-5): 1.78 ± 0.99%
- Mean % Abnormal Neurones, Hip CA ([2]; Hip CA): 16.76 ± 4.00%
- Mean % Abnormal Neurones, Hip. Cortex ([2]; Hip. Cortex): 2.41 ± 0.30%
- Mean % Abnormal Neurones, Purk. cells ([2]; Purk. cells): 2.22 ± 0.79%
- Mean % Abnormal Neurones, Str. Cortex ([2]; Str. Cortex): 2.01 ± 0.29%
- Mean % Abnormal Neurones, Striatum ([2]; Striatum): 1.54 ± 0.33%
- Mean % Abnormal Neurones, Thalamus ([2]; Thalamus): 0.64 ± 0.25%
- % clonic seizures ([3]; schedule A (15 minutes), n=20): 85.0%
- % death ([3]; schedule A (15 minutes), n=20): 50.0%
- % tonic seizures ([3]; schedule A (15 minutes), n=20): 85.0%
- % clonic seizures ([3]; schedule B (60 minutes), n=25): 88.0%
- % death ([3]; schedule B (60 minutes), n=25): 36.0%
- % tonic seizures ([3]; schedule B (60 minutes), n=25): 64.0%
- % clonic seizures [3, 8]: 66.7%
- % death [3, 8]: 45.0%
- % tonic seizures [3, 8]: 41.7%
- inhibition at 5 mg/kg ([4]; Mus musculus, po, 5 mg/kg p.o., 15 min pre-treatment, % of total transit induced by Ba^+2, read-out: % Inhibition of Ba^+2 effect): 14%
- inhibition at 25 mg/kg ([4]; Mus musculus, po, 25 mg/kg p.o., 15 min pre-treatment, % of total transit induced by Ba^+2, read-out: % Inhibition of Ba^+2 effect): -30.4%
- inhibition at 60 mg/kg ([4]; Mus musculus, po, 60 mg/kg p.o., 15 min pre-treatment, % of total transit induced by Ba^+2, read-out: % Inhibition of Ba^+2 effect): -31.7%
- Potassium ion, Cumulative ([5]; 5 mg/kg p.o., 1 hour): .04 ± .03 mEq
- Sodium ion, Cumulative ([5]; 5 mg/kg p.o., 1 hour): .07 ± .06 mEq
- Urine Volume, Cumulative ([5]; 5 mg/kg p.o., 1 hour): 5.7 ± 2.5 mL
- Potassium ion, Cumulative ([5]; 5 mg/kg p.o., 3 hours): .16 ± .09 mEq
- Sodium ion, Cumulative ([5]; 5 mg/kg p.o., 3 hours): .39 ± .25 mEq
- Urine Volume, Cumulative ([5]; 5 mg/kg p.o., 3 hours): 9.5 ± 3.6 mL
- Potassium ion, Cumulative ([5]; 5 mg/kg p.o., 6 hours): .26 ± .12 mEq
- Sodium ion, Cumulative ([5]; 5 mg/kg p.o., 6 hours): .73 ± .32 mEq
- Urine Volume, Cumulative ([5]; 5 mg/kg p.o., 6 hours): 11.8 ± 3.9 mL
- Potassium ion, Cumulative ([5]; 15 mg/kg p.o., 1 hour): .04 ± .05 mEq
- Sodium ion, Cumulative ([5]; 15 mg/kg p.o., 1 hour): .12 ± .16 mEq
- Urine Volume, Cumulative ([5]; 15 mg/kg p.o., 1 hour): 5.7 ± 4.4 mL
- Potassium ion, Cumulative ([5]; 15 mg/kg p.o., 3 hours): .12 ± .06 mEq
- Sodium ion, Cumulative ([5]; 15 mg/kg p.o., 3 hours): .44 ± .20 mEq
- Urine Volume, Cumulative ([5]; 15 mg/kg p.o., 3 hours): 9.8 ± 3.2 mL
- Potassium ion, Cumulative ([5]; 15 mg/kg p.o., 6 hours): .20 ± .08 mEq
- Sodium ion, Cumulative ([5]; 15 mg/kg p.o., 6 hours): .68 ± .28 mEq
- Urine Volume, Cumulative ([5]; 15 mg/kg p.o., 6 hours): 11.7 ± 3.3 mL
- Potassium ion, Cumulative ([5]; 30 mg/kg p.o., 1 hour): .04 ± .03 mEq
- Sodium ion, Cumulative ([5]; 30 mg/kg p.o., 1 hour): .15 ± .12 mEq
- Urine Volume, Cumulative ([5]; 30 mg/kg p.o., 1 hour): 6.5 ± 2.3 mL
- Potassium ion, Cumulative ([5]; 30 mg/kg p.o., 3 hours): .15 ± .08 mEq
- Sodium ion, Cumulative ([5]; 30 mg/kg p.o., 3 hours): .79 ± .38 mEq
- Urine Volume, Cumulative ([5]; 30 mg/kg p.o., 3 hours): 10.5 ± 2.5 mL
- Potassium ion, Cumulative ([5]; 30 mg/kg p.o., 6 hours): .27 ± .06 mEq
- Sodium ion, Cumulative ([5]; 30 mg/kg p.o., 6 hours): 1.48 ± .24 mEq
- Urine Volume, Cumulative ([5]; 30 mg/kg p.o., 6 hours): 14.6 ± 1.4 mL
- diuresis ([5]; 30 mg/kg p.o., at 1 hour and 6 hours post-drug): significant (p<0.05) diuresis
- natriuretic effect ([5]; 30 mg/kg p.o., at the 3 and 6 hour time periods): significant natriuretic effect
- kaliuretic effects ([5]; following compound administration, p.o.): No significant kaliuretic effects were observed
- inhibition at 5 mg/kg ([6]; 5 mg/kg p.o.): -19.3%
- inhibition at 25 mg/kg ([6]; 25 mg/kg p.o.): -28.7%
- inhibition at 60 mg/kg ([6]; 60 mg/kg p.o.): -16.1%

Structure (SMILES): [Ba+2].[Cl-].[Cl-] [barium chloride, reference compound]
- % Change Ba^+2 ([4]; barium chloride 300 mg/kg oral, effect of Ba^+2 on transit): +93%

Structure (SMILES): Clc1ccccc1CN1CCc2sccc2C1 [ticlopidine]
- risk of a second ischemic event [7]: demonstrated to reduce the risk of a second ischemic event
